Active and inactive are the calls of the source. The calls are words filed in the database; no cut-off is given here.
Tests used:
[1] = molecular target: T1, NPC1-like intracellular cholesterol transporter 1 (Homo sapiens) (UniProt Q9UHC9); assay: Inhibition of NPC1L1 in human Caco2 cells assessed as decrease in cholesterol uptake at 100 uM preincubated for 24 hrs followed by stigmosterol substrate addition measured after 24 hrs by HPLC method; assay type: cell-based
T1 sequence (whole entry): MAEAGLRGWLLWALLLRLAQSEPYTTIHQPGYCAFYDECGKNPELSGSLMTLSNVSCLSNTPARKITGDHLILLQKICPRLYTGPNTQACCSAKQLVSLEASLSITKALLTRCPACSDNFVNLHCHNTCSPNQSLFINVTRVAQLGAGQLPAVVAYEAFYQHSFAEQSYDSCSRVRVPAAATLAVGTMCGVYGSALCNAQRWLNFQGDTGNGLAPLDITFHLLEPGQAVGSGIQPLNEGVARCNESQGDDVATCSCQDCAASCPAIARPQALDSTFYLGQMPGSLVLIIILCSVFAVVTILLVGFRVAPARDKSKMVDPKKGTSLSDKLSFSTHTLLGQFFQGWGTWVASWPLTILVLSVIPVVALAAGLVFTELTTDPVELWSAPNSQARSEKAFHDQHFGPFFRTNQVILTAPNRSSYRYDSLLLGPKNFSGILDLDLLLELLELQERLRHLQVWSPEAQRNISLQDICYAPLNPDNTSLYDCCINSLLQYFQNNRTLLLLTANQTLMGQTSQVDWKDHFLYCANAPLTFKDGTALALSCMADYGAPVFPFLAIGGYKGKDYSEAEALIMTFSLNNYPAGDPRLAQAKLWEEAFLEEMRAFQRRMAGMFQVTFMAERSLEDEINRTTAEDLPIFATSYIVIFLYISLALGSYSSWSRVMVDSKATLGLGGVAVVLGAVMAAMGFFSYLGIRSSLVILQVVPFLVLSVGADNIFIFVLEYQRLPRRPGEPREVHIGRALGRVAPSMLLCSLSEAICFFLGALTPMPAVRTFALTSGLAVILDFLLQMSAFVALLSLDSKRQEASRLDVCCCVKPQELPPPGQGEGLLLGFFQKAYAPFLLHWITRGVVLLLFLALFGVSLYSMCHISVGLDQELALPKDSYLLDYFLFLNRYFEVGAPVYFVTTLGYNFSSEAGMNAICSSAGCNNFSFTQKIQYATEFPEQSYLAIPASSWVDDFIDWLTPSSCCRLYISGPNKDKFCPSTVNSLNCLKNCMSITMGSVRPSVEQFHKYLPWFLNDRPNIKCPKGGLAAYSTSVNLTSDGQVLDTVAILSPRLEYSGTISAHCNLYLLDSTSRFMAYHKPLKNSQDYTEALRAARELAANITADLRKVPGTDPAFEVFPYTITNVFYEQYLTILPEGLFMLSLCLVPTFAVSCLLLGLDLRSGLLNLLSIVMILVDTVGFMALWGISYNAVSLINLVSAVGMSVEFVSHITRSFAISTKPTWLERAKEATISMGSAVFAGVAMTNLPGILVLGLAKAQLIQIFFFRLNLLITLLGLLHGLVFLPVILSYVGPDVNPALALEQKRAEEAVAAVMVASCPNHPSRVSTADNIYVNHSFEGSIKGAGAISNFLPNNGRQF

[2] = Cytotoxicity against HEK293 cells after 48 hrs by MTT assay; assay type: cell-based; conditions: human, read-out: LC50
[3] = Octanol-water partition coefficient, log P of the compound measured after 4 hrs by HPLC analysis; assay type: physicochemical
[4] = Cytotoxicity against mouse RAW264.7 cells after 48 hrs by MTT assay; assay type: cell-based; conditions: read-out: LC50
[5] = molecular target: T1, NPC1-like intracellular cholesterol transporter 1 (Homo sapiens); assay: Inhibition of NPC1L1 in human Caco2 cells assessed as decrease in cholesterol uptake at 100 uM preincubated for 24 hrs followed by stigmosterol substrate addition measured after 24 hrs by HPLC method relative to control; assay type: cell-based
[6] = molecular target: NPC1-like intracellular cholesterol transporter 1 (Mus musculus) (UniProt Q6T3U4); assay: Inhibition of NPC1L1-mediated cholesterol-methyl-beta-cyclodextrin accumulation in mouse RAW264.7 cells incubated for 72 hrs by Oil Red O/hematoxyline staining based microscopic analysis; assay type: cell-based
Chain of NPC1-like intracellular cholesterol transporter 1 (Mus musculus) (Q6T3U4 21-1333 limits assumed): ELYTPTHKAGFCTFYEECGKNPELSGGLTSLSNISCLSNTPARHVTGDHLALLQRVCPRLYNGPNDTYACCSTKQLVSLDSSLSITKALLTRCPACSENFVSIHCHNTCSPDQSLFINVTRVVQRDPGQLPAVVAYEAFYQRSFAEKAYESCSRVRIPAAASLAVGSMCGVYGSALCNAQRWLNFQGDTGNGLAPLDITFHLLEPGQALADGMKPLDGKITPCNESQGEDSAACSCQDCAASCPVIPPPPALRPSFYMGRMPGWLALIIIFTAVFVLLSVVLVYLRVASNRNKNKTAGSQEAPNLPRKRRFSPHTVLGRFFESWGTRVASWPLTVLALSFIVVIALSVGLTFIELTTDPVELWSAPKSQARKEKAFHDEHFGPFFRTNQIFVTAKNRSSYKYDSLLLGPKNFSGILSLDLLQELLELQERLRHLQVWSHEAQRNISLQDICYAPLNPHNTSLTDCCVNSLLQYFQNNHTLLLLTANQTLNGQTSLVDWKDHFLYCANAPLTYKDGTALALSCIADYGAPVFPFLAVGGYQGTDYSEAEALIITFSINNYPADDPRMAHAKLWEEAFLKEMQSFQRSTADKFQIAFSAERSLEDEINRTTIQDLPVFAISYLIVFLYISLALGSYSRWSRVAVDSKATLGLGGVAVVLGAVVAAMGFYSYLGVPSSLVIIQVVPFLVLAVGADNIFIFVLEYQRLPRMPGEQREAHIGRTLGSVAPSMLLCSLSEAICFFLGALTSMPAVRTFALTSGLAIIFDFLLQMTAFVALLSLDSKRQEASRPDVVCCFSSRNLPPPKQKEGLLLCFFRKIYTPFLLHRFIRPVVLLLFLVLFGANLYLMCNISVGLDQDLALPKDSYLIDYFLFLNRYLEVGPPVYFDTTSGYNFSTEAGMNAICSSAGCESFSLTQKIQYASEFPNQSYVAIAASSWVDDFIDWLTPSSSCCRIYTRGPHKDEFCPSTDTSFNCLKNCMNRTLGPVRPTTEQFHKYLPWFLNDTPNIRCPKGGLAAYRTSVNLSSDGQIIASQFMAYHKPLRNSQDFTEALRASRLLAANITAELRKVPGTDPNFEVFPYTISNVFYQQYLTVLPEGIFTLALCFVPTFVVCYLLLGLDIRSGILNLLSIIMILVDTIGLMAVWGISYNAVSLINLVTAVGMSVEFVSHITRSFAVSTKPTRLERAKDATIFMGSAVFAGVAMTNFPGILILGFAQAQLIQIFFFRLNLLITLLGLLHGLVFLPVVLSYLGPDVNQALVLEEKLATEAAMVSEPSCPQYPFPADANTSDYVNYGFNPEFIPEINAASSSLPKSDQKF

RAW264.7 [7] = assay: Antiinflammatory activity against mouse RAW264.7 cells assessed as decrease in cholesterol-methyl-beta-cyclodextrin-induced TNFalpha release at 30 uM relative to control; assay type: functional; set-up: scale not given: the % may be the effect or the level left
[8] = molecular target: NPC1-like intracellular cholesterol transporter 1 (Mus musculus) (UniProt Q6T3U4); assay: Inhibition of NPC1L1-mediated cholesterol-methyl-beta-cyclodextrin accumulation in mouse RAW264.7 cells assessed as decrease in foam cell formation by measuring decrease in LDH level at 30 uM relative to control; assay type: cell-based; set-up: scale not given: the % may be the effect or the level left
RAW264.7 [9] = assay: Antiinflammatory activity against mouse RAW264.7 cells assessed as decrease in cholesterol-methyl-beta-cyclodextrin-induced ROS level at 30 uM relative to control; assay type: functional; set-up: scale not given: the % may be the effect or the level left
[10] = molecular target: NPC1-like intracellular cholesterol transporter 1 (Mus musculus) (UniProt Q6T3U4); assay: Inhibition of NPC1L1-mediated cholesterol-methyl-beta-cyclodextrin accumulation in mouse RAW264.7 cells assessed as decrease in foam cell formation by measuring decrease in MDA level at 30 uM relative to control; assay type: cell-based; set-up: scale not given: the % may be the effect or the level left
[11] = molecular target: NPC1-like intracellular cholesterol transporter 1 (Mus musculus) (UniProt Q6T3U4); assay: Inhibition of NPC1L1 in mouse RAW264.7 cells assessed as decrease in choleserol-D7 absorption at 30 uM after 72 hrs by LC-MS/MS analysis relative to control; assay type: cell-based
RAW264.7 [12] = assay: Antiinflammatory activity against mouse RAW264.7 cells assessed as decrease in cholesterol-methyl-beta-cyclodextrin-induced TNFalpha release; assay type: functional, cell-based
[13] = molecular target: NPC1-like intracellular cholesterol transporter 1 (Mus musculus) (UniProt Q6T3U4); assay: Inhibition of NPC1L1-mediated cholesterol-methyl-beta-cyclodextrin accumulation in mouse RAW264.7 cells assessed as decrease in foam cell formation by measuring decrease in LDH level; assay type: cell-based
[14] = molecular target: NPC1-like intracellular cholesterol transporter 1 (Mus musculus) (UniProt Q6T3U4); assay: Inhibition of NPC1L1-mediated cholesterol-methyl-beta-cyclodextrin accumulation in mouse RAW264.7 cells assessed as decrease in foam cell formation by measuring decrease in MDA level; assay type: cell-based
RAW264.7 [15] = assay: Antiinflammatory activity against mouse RAW264.7 cells assessed as decrease in cholesterol-methyl-beta-cyclodextrin-induced ROS level; assay type: functional, cell-based

SMILES	inhibition [1]	CC50 at 48 h [2] [µM]	logP at 4 h [3]	CC50 at 48 h [4] [µM]	other results
Cc1ccc(S(=O)(=O)NCCCCN2C(=O)C(c3ccc(F)cc3)=C(c3ccc(OCC(=O)NCC(=O)NCC(=O)O)cc3)C2=O)cc1	Active	> 100	2 to 4	> 100	
CCN(CC)CCOc1ccc(C2=C(c3ccc(F)cc3)C(=O)N(CCC(O)(c3ccccc3)c3ccccc3)C2=O)cc1		31.5	> 5	32.7	inhibition [5]: 69.6 to 72.6%
O=C1C(c2ccc(F)cc2)=C(c2ccc(OCCCCS(=O)(=O)O)cc2)C(=O)N1CCC(O)(c1ccccc1)c1ccccc1	inactive				
O=C1C(c2ccc(F)cc2)=C(c2ccc(OCCCS(=O)(=O)O)cc2)C(=O)N1CCC(O)(c1ccccc1)c1ccccc1	inactive				
CCN(CC)CCCCOc1ccc(C2=C(c3ccc(F)cc3)C(=O)N(CCC(O)(c3ccccc3)c3ccccc3)C2=O)cc1		47.3	> 5	43.2	inhibition [5]: 69.6 to 72.6%
CCc1ccc(S(=O)(=O)NCCCCN2C(=O)C(c3ccc(F)cc3)=C(c3ccc(OCC(=O)NCC(=O)NCC(=O)O)cc3)C2=O)cc1	Active	> 100	2 to 4	> 100	
O=C1C(c2ccc(O)cc2)=C(c2ccc(F)cc2)C(=O)N1CCCNS(=O)(=O)c1ccc(OC(F)(F)F)cc1	Active	24.8	2 to 4	41.2	
O=C1[C@H](CC[C@H](O)c2ccc(F)cc2)[C@@H](c2ccc(O)cc2)N1c1ccc(F)cc1 [EZETIMIBE]		57.6		44.2	inhibition [6]: Dose-dependent effect; inhibition [5]: 51.3%; Activity (RAW264.7 [7]): 30.9%; Activity [8]: 36.4%; Activity (RAW264.7 [9]): 46.5%; Activity [10]: 76.3%; inhibition [11]: 80.3%
O=C1C(c2ccc(O)cc2)=C(c2ccc(F)cc2)C(=O)N1CCC(O)(c1ccccc1)c1ccccc1	Active	> 100	2 to 4	> 100	inhibition [6]: Dose-dependent effect; Activity (RAW264.7 [7]): 35.1%; Activity (RAW264.7 [12]): Dose-dependent effect; Activity [8]: 33.3%; inhibition [13]: Dose-dependent effect; Activity (RAW264.7 [9]): 51%; Activity [10]: 79.6%; inhibition [14]: Dose-dependent effect; inhibition [11]: 67.9%; Activity (RAW264.7 [15]): Dose-dependent effect
CCc1ccc(S(=O)(=O)NCCN2C(=O)C(c3ccc(O)cc3)=C(c3ccc(F)cc3)C2=O)cc1	Active	80.4	2 to 4	> 100	
O=C1C(c2ccc(F)cc2)=C(c2ccc(OCCS(=O)(=O)O)cc2)C(=O)N1CCC(O)(c1ccccc1)c1ccccc1	inactive				
CCN(CC)CCCOc1ccc(C2=C(c3ccc(F)cc3)C(=O)N(CCC(O)(c3ccccc3)c3ccccc3)C2=O)cc1		32.7	> 5	37.6	inhibition [5]: 69.6 to 72.6%
CCc1ccc(S(=O)(=O)NCCCN2C(=O)C(c3ccc(O)cc3)=C(c3ccc(F)cc3)C2=O)cc1	Active	11.5	2 to 4	17.2	
O=C1C(c2ccc(O)cc2)=C(c2ccc(F)cc2)C(=O)N1CCCNS(=O)(=O)c1ccc(C(F)(F)F)cc1	Active	19.7	2 to 4	34.3	
